Results taken from ChEMBL document CHEMBL4665836, “Overcoming β-Lactam resistance in Pseudomonas aeruginosa using non-canonical tobramycin-based antibiotic adjuvants” (2020).

Key:
Assay type in all cases: functional
Pseudomonas aeruginosa [1] = test: Potentiation of imipenem-induced antibacterial activity against carbapenem-resistant Pseudomonas aeruginosa 86052 clinical isolate assessed as fold reduction in imipenem MIC at 8 uM in presence of beta-lactamase inhibitor, rele-bactam
Pseudomonas aeruginosa [2] = test: Potentiation of imipenem-induced antibacterial activity against carbapenem-resistant Pseudomonas aeruginosa 88949 clinical isolate assessed as fold reduction in imipenem MIC at 8 uM in presence of beta-lactamase inhibitor, rele-bactam
Pseudomonas aeruginosa [3] = test: Potentiation of imipenem-induced antibacterial activity against carbapenem-resistant Pseudomonas aeruginosa 108590 clinical isolate assessed as fold reduction in imipenem MIC at 8 uM in presence of beta-lactamase inhibitor, rele-bactam
Pseudomonas aeruginosa [4] = test: Potentiation of aztreonam-induced antibacterial activity against carbapenem-resistant Pseudomonas aeruginosa 107092 clinical isolate assessed as fold reduction in aztreonam MIC at 8 uM in presence of beta-lactamase inhibitor, avi-bactam
Pseudomonas aeruginosa [5] = test: Potentiation of aztreonam-induced antibacterial activity against carbapenem-resistant Pseudomonas aeruginosa 109084 clinical isolate assessed as fold reduction in aztreonam MIC at 8 uM in presence of beta-lactamase inhibitor, avi-bactam
Pseudomonas aeruginosa [6] = test: Potentiation of ceftazidime-induced antibacterial activity against carbapenem-resistant Pseudomonas aeruginosa 108590 clinical isolate assessed as fold reduction in ceftazidime MIC at 8 uM in presence of beta-lactamase inhibitor, avi-bactam
Pseudomonas aeruginosa [7] = test: Potentiation of ceftazidime-induced antibacterial activity against carbapenem-resistant Pseudomonas aeruginosa 107092 clinical isolate assessed as fold reduction in ceftazidime MIC at 8 uM in presence of beta-lactamase inhibitor, avi-bactam
Pseudomonas aeruginosa [8] = test: Potentiation of imipenem-induced antibacterial activity against carbapenem-resistant Pseudomonas aeruginosa PAO750 harboring mexAB-oprM/mexCD-oprJ/mexEF-oprN/mexJK/mexXY/opmH efflux deficient mutant assessed as imipenem MIC at 8 uM by checkerboard assay (reference value: 4 ug/ml)
Pseudomonas aeruginosa [9] = test: Potentiation of imipenem-induced antibacterial activity against carbapenem-resistant Pseudomonas aeruginosa 108590 clinical isolate assessed as imipenem MIC at 8 uM by checkerboard assay (reference value: 16 ug/ml)
Pseudomonas aeruginosa [10] = test: Potentiation of imipenem-induced antibacterial activity against carbapenem-resistant Pseudomonas aeruginosa 107092 clinical isolate assessed as imipenem MIC at 8 uM by checkerboard assay (reference value: 64 ug/ml)
Pseudomonas aeruginosa [11] = test: Potentiation of imipenem-induced antibacterial activity against carbapenem-resistant Pseudomonas aeruginosa 88949 clinical isolate assessed as imipenem MIC at 8 uM by checkerboard assay (reference value: 64 ug/ml)
Pseudomonas aeruginosa [12] = test: Potentiation of imipenem-induced antibacterial activity against carbapenem and colistin-resistant Pseudomonas aeruginosa 114228 clinical isolate assessed as imipenem MIC at 8 uM by checkerboard assay (reference value: 8 ug/ml)
Pseudomonas aeruginosa [13] = test: Potentiation of imipenem-induced antibacterial activity against carbapenem and colistin-resistant Pseudomonas aeruginosa 91433 clinical isolate assessed as imipenem MIC at 8 uM by checkerboard assay (reference value: 8 ug/ml)
Pseudomonas aeruginosa [14] = test: Potentiation of imipenem-induced antibacterial activity against carbapenem-resistant Pseudomonas aeruginosa 264-104354 clinical isolate assessed as imipenem MIC at 8 uM by checkerboard assay (reference value: 16 ug/ml)
Pseudomonas aeruginosa [15] = test: Potentiation of imipenem-induced antibacterial activity against carbapenem-resistant Pseudomonas aeruginosa 262-101856 clinical isolate assessed as imipenem MIC at 8 uM by checkerboard assay (reference value: 32 ug/ml)
Pseudomonas aeruginosa [16] = test: Potentiation of imipenem-induced antibacterial activity against wild-type Pseudomonas aeruginosa PAO1 assessed as imipenem MIC at 8 uM by checkerboard assay (reference value: 4 ug/ml)
Pseudomonas aeruginosa [17] = test: Potentiation of ceftazidime-induced antibacterial activity against carbapenem-resistant Pseudomonas aeruginosa 109084 clinical isolate assessed as ceftazidime MIC at 8 uM by checkerboard assay (reference value: 64 ug/ml)
Pseudomonas aeruginosa [18] = test: Potentiation of ceftazidime-induced antibacterial activity against carbapenem and colistin-resistant Pseudomonas aeruginosa 114228 clinical isolate assessed as ceftazidime MIC at 8 uM by checkerboard assay (reference value: 8 ug/ml)
Pseudomonas aeruginosa [19] = test: Potentiation of ceftazidime-induced antibacterial activity against carbapenem and colistin-resistant Pseudomonas aeruginosa 101243 clinical isolate assessed as ceftazidime MIC at 8 uM by checkerboard assay (reference value: 64 ug/ml)
Pseudomonas aeruginosa [20] = test: Potentiation of ceftazidime-induced antibacterial activity against carbapenem and colistin-resistant Pseudomonas aeruginosa 91433 clinical isolate assessed as ceftazidime MIC at 8 uM by checkerboard assay (reference value: 4 ug/ml)
Pseudomonas aeruginosa [21] = test: Potentiation of ceftazidime-induced antibacterial activity against carbapenem-resistant Pseudomonas aeruginosa 262-101856 clinical isolate assessed as ceftazidime MIC at 8 uM by checkerboard assay (reference value: 16 ug/ml)
Pseudomonas aeruginosa [22] = test: Potentiation of aztreonam-induced antibacterial activity against carbapenem-resistant Pseudomonas aeruginosa PAO750 harboring mexAB-oprM/mexCD-oprJ/mexEF-oprN/mexJK/mexXY/opmH efflux deficient mutant assessed as aztreonam MIC at 8 uM by checkerboard assay (reference value: 0.5 ug/ml)
Pseudomonas aeruginosa [23] = test: Potentiation of aztreonam-induced antibacterial activity against carbapenem-resistant Pseudomonas aeruginosa PAO200 harboring mexAB-oprM efflux deficient mutant assessed as aztreonam MIC at 8 uM by checkerboard assay (reference value: 0.25 ug/ml)
Pseudomonas aeruginosa [24] = test: Potentiation of aztreonam-induced antibacterial activity against carbapenem-resistant Pseudomonas aeruginosa 109084 clinical isolate assessed as aztreonam MIC at 8 uM by checkerboard assay (reference value: 64 ug/ml)
Pseudomonas aeruginosa [25] = test: Potentiation of aztreonam-induced antibacterial activity against carbapenem-resistant Pseudomonas aeruginosa 108590 clinical isolate assessed as aztreonam MIC at 8 uM by checkerboard assay (reference value: 32 ug/ml)
Pseudomonas aeruginosa [26] = test: Potentiation of aztreonam-induced antibacterial activity against carbapenem-resistant Pseudomonas aeruginosa 86052 clinical isolate assessed as aztreonam MIC at 8 uM by checkerboard assay (reference value: 64 ug/ml)
Pseudomonas aeruginosa [27] = test: Potentiation of aztreonam-induced antibacterial activity against carbapenem and colistin-resistant Pseudomonas aeruginosa 114228 clinical isolate assessed as aztreonam MIC at 8 uM by checkerboard assay (reference value: 32 ug/ml)
Pseudomonas aeruginosa [28] = test: Potentiation of aztreonam-induced antibacterial activity against carbapenem-resistant Pseudomonas aeruginosa 101885 clinical isolate assessed as aztreonam MIC at 8 uM by checkerboard assay (reference value: 16 ug/ml)
Pseudomonas aeruginosa [29] = test: Potentiation of aztreonam-induced antibacterial activity against carbapenem-resistant Pseudomonas aeruginosa 259-96918 clinical isolate expressing metallo-beta-lactamase assessed as aztreonam MIC at 8 uM by checkerboard assay (reference value: 32 ug/ml)
Pseudomonas aeruginosa [30] = test: Potentiation of piperacillin-induced antibacterial activity against wild type Pseudomonas aeruginosa PAO1 assessed as piperacillin MIC at 8 uM by checkerboard assay (reference value: 8 ug/ml)
Pseudomonas aeruginosa [31] = test: Antibacterial activity against wild type Pseudomonas aeruginosa PAO1
Pseudomonas aeruginosa [32] = test: Potentiation of piperacillin-induced antibacterial activity against wild type Pseudomonas aeruginosa PAO1 assessed as fold reduction in piperacillin MIC at 8 uM

Structure (SMILES)	fold change (FC) (Pseudomonas aeruginosa [1])	fold change (FC) (Pseudomonas aeruginosa [2])	fold change (FC) (Pseudomonas aeruginosa [3])	fold change (FC) (Pseudomonas aeruginosa [4])	fold change (FC) (Pseudomonas aeruginosa [5])	fold change (FC) (Pseudomonas aeruginosa [6])	fold change (FC) (Pseudomonas aeruginosa [7])	MIC (Pseudomonas aeruginosa [8])	MIC (Pseudomonas aeruginosa [9])	MIC (Pseudomonas aeruginosa [10])	MIC (Pseudomonas aeruginosa [11])	MIC (Pseudomonas aeruginosa [12])	MIC (Pseudomonas aeruginosa [13])	MIC (Pseudomonas aeruginosa [14])	MIC (Pseudomonas aeruginosa [15])	MIC (Pseudomonas aeruginosa [16])	MIC (Pseudomonas aeruginosa [17])	MIC (Pseudomonas aeruginosa [30])	MIC (Pseudomonas aeruginosa [31])	fold change (FC) (Pseudomonas aeruginosa [32])	also measured
NC[C@H]1O[C@H](O[C@H]2[C@H](OCCCCc3cn(CCCCO[C@@H]4[C@@H](O[C@H]5O[C@H](CO)[C@@H](O)[C@H](N)[C@H]5O)[C@H](N)C[C@H](N)[C@H]4O[C@H]4O[C@H](CN)[C@@H](O)C[C@H]4N)nn3)[C@@H](O[C@H]3O[C@H](CO)[C@@H](O)[C@H](N)[C@H]3O)[C@H](N)C[C@@H]2N)[C@H](N)C[C@@H]1O.O=C(O)C(F)(F)F.O=C(O)C(F)(F)F.O=C(O)C(F)(F)F.O=C(O)C(F)(F)F.O=C(O)C(F)(F)F.O=C(O)C(F)(F)F.O=C(O)C(F)(F)F.O=C(O)C(F)(F)F.O=C(O)C(F)(F)F.O=C(O)C(F)(F)F	16	16	16	16	16	16	16	1 µg/mL	4 µg/mL	16 µg/mL	4 µg/mL	0.5 µg/mL	4 µg/mL	4 µg/mL	2 µg/mL	1 µg/mL	32 µg/mL	0.5 µg/mL	> 128 µg/mL	2	MIC (Pseudomonas aeruginosa [18]): 1 µg/mL; MIC (Pseudomonas aeruginosa [19]): 64 µg/mL; MIC (Pseudomonas aeruginosa [20]): 1 µg/mL; MIC (Pseudomonas aeruginosa [21]): 2 µg/mL; MIC (Pseudomonas aeruginosa [22]): 0.06 µg/mL; MIC (Pseudomonas aeruginosa [23]): 0.03 µg/mL; MIC (Pseudomonas aeruginosa [24]): 8 µg/mL; MIC (Pseudomonas aeruginosa [25]): 8 µg/mL; MIC (Pseudomonas aeruginosa [26]): 8 µg/mL; MIC (Pseudomonas aeruginosa [27]): 4 µg/mL; MIC (Pseudomonas aeruginosa [28]): 4 µg/mL; MIC (Pseudomonas aeruginosa [29]): 8 µg/mL
Cl.Cl.Cl.Cl.Cl.NC[C@H]1O[C@H](O[C@H]2[C@H](OCCCCCCCCCCCCN3CCN(c4cc5c(cc4F)c(=O)c(C(=O)O)cn5C4CC4)CC3)[C@@H](O)[C@H](N)C[C@@H]2N)[C@H](N)C[C@@H]1O	16	16	16	16	16	16	16	2 µg/mL	0.5 µg/mL	16 µg/mL	64 µg/mL	1 µg/mL	8 µg/mL	8 µg/mL	8 µg/mL	1 µg/mL	32 µg/mL	2 µg/mL	32 µg/mL	2	MIC (Pseudomonas aeruginosa [18]): 4 µg/mL; MIC (Pseudomonas aeruginosa [19]): 4 µg/mL; MIC (Pseudomonas aeruginosa [20]): 0.5 µg/mL; MIC (Pseudomonas aeruginosa [21]): 4 µg/mL; MIC (Pseudomonas aeruginosa [22]): 0.13 µg/mL; MIC (Pseudomonas aeruginosa [23]): 0.03 µg/mL; MIC (Pseudomonas aeruginosa [24]): 32 µg/mL; MIC (Pseudomonas aeruginosa [25]): 0.13 µg/mL; MIC (Pseudomonas aeruginosa [26]): 4 µg/mL; MIC (Pseudomonas aeruginosa [27]): 8 µg/mL; MIC (Pseudomonas aeruginosa [28]): 4 µg/mL; MIC (Pseudomonas aeruginosa [29]): 8 µg/mL
Cl.Cl.Cl.Cl.Cl.Cl.NC[C@H]1O[C@H](O[C@H]2[C@H](OCCCCCCCCCCCCN3CCN(c4cc5c(cc4F)c(=O)c(C(=O)O)cn5C4CC4)CC3)[C@@H](O[C@H]3O[C@H](CO)[C@@H](O)[C@H](N)[C@H]3O)[C@H](N)C[C@@H]2N)[C@H](N)C[C@@H]1O	16	16	16	16	16	16	16	0.5 µg/mL	0.25 µg/mL	8 µg/mL	8 µg/mL	2 µg/mL	2 µg/mL	4 µg/mL	4 µg/mL	0.5 µg/mL	16 µg/mL	2 µg/mL	32 µg/mL	2	MIC (Pseudomonas aeruginosa [18]): 0.5 µg/mL; MIC (Pseudomonas aeruginosa [19]): 8 µg/mL; MIC (Pseudomonas aeruginosa [20]): 2 µg/mL; MIC (Pseudomonas aeruginosa [21]): 4 µg/mL; MIC (Pseudomonas aeruginosa [22]): 0.06 µg/mL; MIC (Pseudomonas aeruginosa [23]): 0.03 µg/mL; MIC (Pseudomonas aeruginosa [24]): 16 µg/mL; MIC (Pseudomonas aeruginosa [25]): 0.5 µg/mL; MIC (Pseudomonas aeruginosa [26]): 8 µg/mL; MIC (Pseudomonas aeruginosa [27]): 2 µg/mL; MIC (Pseudomonas aeruginosa [28]): 1 µg/mL; MIC (Pseudomonas aeruginosa [29]): 8 µg/mL
NC[C@H]1O[C@H](O[C@H]2[C@H](OCCCCCCCCN3CCCNCCNCCCNCC3)[C@@H](O[C@H]3O[C@H](CO)[C@@H](O)[C@H](N)[C@H]3O)[C@H](N)C[C@@H]2N)[C@H](N)C[C@@H]1O.O=C(O)C(F)(F)F.O=C(O)C(F)(F)F.O=C(O)C(F)(F)F.O=C(O)C(F)(F)F.O=C(O)C(F)(F)F.O=C(O)C(F)(F)F.O=C(O)C(F)(F)F.O=C(O)C(F)(F)F.O=C(O)C(F)(F)F	16	16	16	16	16	16	16	2 µg/mL	16 µg/mL	16 µg/mL	32 µg/mL	8 µg/mL	8 µg/mL	8 µg/mL	16 µg/mL	2 µg/mL	–	2 µg/mL	> 128 µg/mL	2	–
NC[C@H]1O[C@H](O[C@H]2[C@H](OCCCCCCCCN3CCCNCCNCCCNCC3)[C@@H](O)[C@H](N)C[C@@H]2N)[C@H](N)C[C@@H]1O.O=C(O)C(F)(F)F.O=C(O)C(F)(F)F.O=C(O)C(F)(F)F.O=C(O)C(F)(F)F.O=C(O)C(F)(F)F.O=C(O)C(F)(F)F.O=C(O)C(F)(F)F.O=C(O)C(F)(F)F	16	16	16	16	16	16	16	4 µg/mL	16 µg/mL	32 µg/mL	64 µg/mL	8 µg/mL	4 µg/mL	16 µg/mL	16 µg/mL	4 µg/mL	32 µg/mL	2 µg/mL	> 128 µg/mL	2	MIC (Pseudomonas aeruginosa [18]): 4 µg/mL; MIC (Pseudomonas aeruginosa [19]): 8 µg/mL; MIC (Pseudomonas aeruginosa [20]): 2 µg/mL; MIC (Pseudomonas aeruginosa [21]): 16 µg/mL; MIC (Pseudomonas aeruginosa [22]): 0.13 µg/mL; MIC (Pseudomonas aeruginosa [23]): 0.06 µg/mL; MIC (Pseudomonas aeruginosa [24]): 32 µg/mL; MIC (Pseudomonas aeruginosa [25]): 8 µg/mL; MIC (Pseudomonas aeruginosa [26]): 64 µg/mL; MIC (Pseudomonas aeruginosa [27]): 16 µg/mL; MIC (Pseudomonas aeruginosa [28]): 4 µg/mL; MIC (Pseudomonas aeruginosa [29]): 8 µg/mL
